The values that follow come from ChEMBL document CHEMBL2021819, “CoA Adducts of 4-Oxo-4-Phenylbut-2-enoates: Inhibitors of MenB from the M. tuberculosis Menaquinone Biosynthesis Pathway” (ACS Med Chem Lett, 2011).

The target of data set [1] is T1, 1,4-dihydroxy-2-naphthoyl-CoA synthase (Mycobacterium tuberculosis) (UniProt P9WNP5).
T1 sequence (whole entry): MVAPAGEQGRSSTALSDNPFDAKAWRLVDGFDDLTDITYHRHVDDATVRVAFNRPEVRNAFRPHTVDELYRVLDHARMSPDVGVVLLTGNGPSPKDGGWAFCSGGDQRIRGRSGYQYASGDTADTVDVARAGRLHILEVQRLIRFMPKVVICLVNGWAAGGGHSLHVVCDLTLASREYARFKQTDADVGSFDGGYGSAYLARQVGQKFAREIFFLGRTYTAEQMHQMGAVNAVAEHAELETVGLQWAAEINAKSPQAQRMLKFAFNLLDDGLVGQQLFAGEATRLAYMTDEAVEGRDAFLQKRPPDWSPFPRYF
Briefly: Inhibition of Mycobacterium tuberculosis MenB expressed in Escherichia coli BL21 (DE3) assessed as formation of DHNA-CoA from OSB-CoA at 50 uM by enzyme coupled-assay in presence of Escherichia coli MenE.

Data set [2] in a line: Chemical stability of the compound at pH 7.4. The format is physicochemical. The following applies: buffer.
Data set [3] addresses T2, 1,4-dihydroxy-2-naphthoyl-CoA synthase (Mycobacterium tuberculosis, UniProt P9WNP5).
T2 sequence (P9WNP5 whole entry): T1 sequence (whole entry)
The experiment in a line: Inhibition of Mycobacterium tuberculosis MenB expressed in Escherichia coli BL21 (DE3) assessed as formation of DHNA-CoA from OSB-CoA by enzyme coupled-assay in presence of Escherichia coli MenE.

Data set [4] has as its target T2, 1,4-dihydroxy-2-naphthoyl-CoA synthase. The experiment in a line: Non-competitive inhibition of Mycobacterium tuberculosis MenB expressed in Escherichia coli BL21 (DE3) by Lineweaver-Burk plot analysis.
Data set [5] has the same target. The experiment in a line: Inhibition of Mycobacterium tuberculosis MenB expressed in Escherichia coli BL21 (DE3) by Lineweaver-Burk plot analysis.
The subject of data set [6] is Mycobacterium tuberculosis. The experiment in a line: Antibacterial activity against non-replicating Mycobacterium tuberculosis H37Rv by low oxygen recovery assay. The format is functional.
The test system of data set [7] is Mycobacterium tuberculosis. Briefly: Antimycobacterial activity against Mycobacterium tuberculosis H37Rv after 5 to 7 days under […] condition by microplate dilution assay. The format is functional.
Data set [8] is described as follows: Selectivity index, ratio of cytotoxicity against african green monkey Vero cells to MIC for Mycobacterium tuberculosis H37Rv. The format is functional.
Data set [9] has as its target T2, 1,4-dihydroxy-2-naphthoyl-CoA synthase. The experiment in a line: Inhibition of Mycobacterium tuberculosis MenB expressed in Escherichia coli BL21 (DE3) assessed as formation of DHNA-CoA from OSB-CoA by enzyme coupled-assay in presence of Escherichia coli MenE preincubated for 1 hr.
The nature of data set [10]: Half life of the compound at pH 7.4. The format is physicochemical.

Converted amounts (≈) assume the structure as drawn. The source made the active and inactive calls.

On to `CC(C(=O)c1ccc(Cl)cc1)C(N[C@@H](C)c1ccccc1)C(=O)O` (stereo partly drawn), for which, in data set [1], the inhibition result was “Active”. Also, in data set [2], the Stability result is given as “Stable”.

In the case of `[2H]C([2H])(C(=O)c1ccccc1Cl)C(N[C@@H](C)c1ccccc1)C(=O)O` (stereo partly drawn), the Stability result in data set [2] is listed as “Stable”.

For orientation: IC50 means the concentration at which inhibition is half-maximal. Regarding `CC(C)(COP(=O)(O)OP(=O)(O)OC[C@H]1O[C@@H](n2cnc3c(N)ncnc32)[C@H](O)[C@@H]1OP(=O)(O)O)[C@@H](O)C(=O)NCCC(=O)NCCSC(CC(=O)c1ccccc1[N+](=O)[O-])C(=O)O` (stereo partly drawn), in [3], the IC50 amounted to 154 nM.

Take `C[C@H](NC(C(=O)O)C(F)(F)C(=O)c1ccc(Cl)cc1)c1ccccc1` (stereo partly drawn): the inhibition entry in data set [1] was “inactive”. Further, in data set [2], the Stability entry is on record as “Stable”.

Regarding `C[C@H](NC(C(=O)O)C(C)(C)C(=O)c1ccccc1)c1ccccc1` (stereo partly drawn), the inhibition entry in [1] is “inactive”. Moreover, the Stability result in data set [2] is on record as “Stable”.

As a reminder, the Ki is a measure of affinity in units of concentration, obtained from inhibition or displacement. `CC(C)(COP(=O)(O)OP(=O)(O)OC[C@H]1O[C@@H](n2cnc3c(N)ncnc32)[C@H](O)[C@@H]1OP(=O)(O)O)[C@@H](O)C(=O)NCCC(=O)NCCSC(CC(=O)c1ccc(Cl)cc1)C(=O)O` (stereo partly drawn): the Ki amounted to 1630 nM in [4] and 350 nM in [5]. Also, the IC50 in [3] worked out at 468 nM.

Take `CC(C)(COP(=O)(O)OP(=O)(O)OC[C@H]1O[C@@H](n2cnc3c(N)ncnc32)[C@H](O)[C@@H]1OP(=O)(O)O)[C@@H](O)C(=O)NCCC(=O)NCCSC(CC(=O)c1ccccc1Br)C(=O)O` (stereo partly drawn): the IC50 in data set [3] was 135 nM.

For orientation: MIC means the least concentration at which growth counts as inhibited. Take `COC(=O)/C=C/C(=O)c1ccc(Cl)cc1`: the values for the MIC in [6] and in [7] were 1.5 µg/mL (≈ 6.68 µM) and 0.64 µg/mL (≈ 2.85 µM), respectively. Also, the “Selectivity Index” value in [8] is on record as above 20.

Consider `CC(C)(COP(=O)(O)OP(=O)(O)OC[C@H]1O[C@@H](n2cnc3c(N)ncnc32)[C@H](O)[C@@H]1OP(=O)(O)O)[C@@H](O)C(=O)NCCC(=O)NCCSC(CC(=O)c1ccccc1Cl)C(=O)O` (stereo partly drawn), for which the Ki in data set [4] came out at 792 nM; in data set [5], 97 nM. In data set [3], the IC50 worked out at 103 nM.

Turning to `CC(C)(COP(=O)(O)OP(=O)(O)OC[C@H]1O[C@@H](n2cnc3c(N)ncnc32)[C@H](O)[C@@H]1OP(=O)(O)O)[C@@H](O)C(=O)NCCC(=O)NCCSC(CC(=O)c1ccccc1I)C(=O)O` (stereo partly drawn), the IC50 in data set [3] came to 421 nM.

Turning to `CC(C)(COP(=O)(O)OP(=O)(O)OC[C@H]1O[C@@H](n2cnc3c(N)ncnc32)[C@H](O)[C@@H]1OP(=O)(O)O)[C@@H](O)C(=O)NCCC(=O)NCCSC(=O)CCC(=O)c1ccc(Cl)cc1Cl`, in data set [3], the IC50 came to 2200 nM.

A word on the half-life: it is the time needed for the level to fall by half in the phase considered. In the case of `C[C@H](NC(CC(=O)c1ccccc1Cl)C(=O)O)c1ccccc1` (stereo partly drawn), the values for the IC50 in [9] and in [3] were 8400 nM and above 120000 nM, respectively. The half-life in [10] is 0.4 h. Besides, the MIC in data set [7] came to 50 µg/mL (≈ 151 µM).

For the molecule `CC(C)(COP(=O)(O)OP(=O)(O)OC[C@H]1O[C@@H](n2cnc3c(N)ncnc32)[C@H](O)[C@@H]1OP(=O)(O)O)[C@@H](O)C(=O)NCCC(=O)NCCSC(CC(=O)c1ccccc1F)C(=O)O` (stereo partly drawn), in data set [3], the IC50 came out at 204 nM.

Consider `C[C@H](NC(CC(=O)c1ccc(Cl)cc1)C(=O)O)c1ccccc1` (stereo partly drawn), for which the concentration for half-maximal inhibition (IC50) in data set [9] is 11700 nM; in data set [3], above 120000 nM. This molecule gave a half-life in data set [10] of 6.8 h. The same molecule returned an MIC in data set [7] of 50 µg/mL (≈ 151 µM).

For the molecule `CC(C)(COP(=O)(O)OP(=O)(O)OC[C@H]1O[C@@H](n2cnc3c(N)ncnc32)[C@H](O)[C@@H]1OP(=O)(O)O)[C@@H](O)C(=O)NCCC(=O)NCCSCCC(=O)c1ccc(Cl)cc1Cl`, in data set [3], the IC50 is above 400000 nM.

For `O=C(CC(NC(=O)c1ccccc1)C(=O)O)c1ccc(Cl)cc1` (stereo not drawn), in [1], the inhibition entry is “inactive”. In addition, the Stability entry in [2] is listed as “Stable”.

For `C[C@H](NC(CC(O)c1ccc(Cl)cc1)C(=O)O)c1ccccc1` (stereo partly drawn), the inhibition entry in data set [1] was “inactive”. Moreover, in data set [2], the Stability result is listed as “Stable”.

With `COc1ccccc1C(=O)CC(SCCNC(=O)CCNC(=O)[C@H](O)C(C)(C)COP(=O)(O)OP(=O)(O)OC[C@H]1O[C@@H](n2cnc3c(N)ncnc32)[C@H](O)[C@@H]1OP(=O)(O)O)C(=O)O` (stereo partly drawn), in data set [3], the IC50 was found to be 12100 nM.

`CC(C)(COP(=O)(O)OP(=O)(O)OC[C@H]1O[C@@H](n2cnc3c(N)ncnc32)[C@H](O)[C@@H]1OP(=O)(O)O)[C@@H](O)C(=O)NCCC(=O)NCCSC(CC(=O)c1ccc(Cl)cc1Cl)C(=O)O` (stereo partly drawn): the Ki in [4] came to 286 nM; in [5], 49 nM. In data set [3], the 50% inhibitory concentration (IC50) came out at 106 nM.

As to `C[C@H](NC(CC(=O)c1ccc(F)cc1)C(=O)O)c1ccccc1` (stereo partly drawn), the IC50 in data set [9] is 14400 nM; in data set [3], above 120000 nM. Besides, in data set [10], the half-life was 12.2 h. In addition, in [7], the lowest concentration to inhibit growth (MIC) was 12.5 µg/mL (≈ 39.6 µM).

In data set [7], `COC(=O)/C=C/C(=O)c1ccc(F)cc1` registered an MIC of 0.64 µg/mL (≈ 3.07 µM). In addition, the “Selectivity Index” value in data set [8] is above 20.

For `C[C@H](NC(CC(=O)c1ccccc1)C(=O)O)c1ccccc1` (stereo partly drawn), the IC50 is 52700 nM in data set [9] and above 120000 nM in data set [3]. The molecule also had a half-life in data set [10] of 11.6 h. Further, 6.25 µg/mL (≈ 21 µM) was the least that counted as inhibitory in data set [7] (MIC).

For `CC(C)(COP(=O)(O)OP(=O)(O)OC[C@H]1O[C@@H](n2cnc3c(N)ncnc32)[C@H](O)[C@@H]1OP(=O)(O)O)[C@@H](O)C(=O)NCCC(=O)NCCSC(CC(=O)c1cccc(Cl)c1)C(=O)O` (stereo partly drawn), the IC50 in data set [3] turned out to be 14100 nM.

As to `C[C@H](NC(CC(=O)c1ccccc1C(F)(F)F)C(=O)O)c1ccccc1` (stereo partly drawn), the IC50 in [9] was 3200 nM; in [3] it was above 120000 nM. The molecule further had a half-life in data set [10] of 0.2 h. Further, in data set [7], the MIC came to 25 µg/mL (≈ 68.4 µM).

In the case of `COc1ccc(C(=O)CC(SCCNC(=O)CCNC(=O)[C@H](O)C(C)(C)COP(=O)(O)OP(=O)(O)OC[C@H]2O[C@@H](n3cnc4c(N)ncnc43)[C@H](O)[C@@H]2OP(=O)(O)O)C(=O)O)cc1` (stereo partly drawn), in [3], the IC50 stood at 33500 nM.

`O=C(O)/C=C/C(=O)c1ccc(Cl)cc1` came in with an MIC in [7] of 25 µg/mL (≈ 119 µM).

Turning to `O=C(CC1N=C(c2ccccc2)OC1=O)c1ccc(Cl)cc1` (stereo not drawn), the inhibition entry in [1] was “inactive”. Moreover, in [2], the Stability entry is given as “Stable”.

Consider `COc1ccccc1C(=O)CC(N[C@@H](C)c1ccccc1)C(=O)O` (stereo partly drawn), for which the half-inhibitory concentration (IC50) in data set [9] and in data set [3] was above 120000 nM each time. This molecule also showed a half-life in data set [10] of 11.6 h. In addition, the MIC in data set [7] came out at 12.5 µg/mL (≈ 38.2 µM).

On to `C[C@H](SC(CC(=O)c1ccc(Cl)cc1)C(=O)O)c1ccccc1` (stereo partly drawn), for which the inhibition result in data set [1] was “inactive”. For the same molecule, the Stability result in [2] is reported as “Stable”.
